From US12171230B2, “Herbicidal compositions” (Bayer Aktiengesellschaft, priority 2018, dated 2024)

Key:
Assay type in all cases: in vivo
[1] = system: Alopecurus myosuroides; experiment: Post-emergence herbicidal action against Alopecurus myosuroides
Source text: (§1) The following abbreviations are used in the description and the tables that follow: • g of a.i./ha=grams of active substance (active ingredient) (=100% active compound) per hectare; • The sum total of the effects of the individual applications is reported under E^A; • expected values according to Colby are each reported under E^C.
(§2) The rating period is reported in days after application (DAT).

[2] = system: Lamium purpureum; experiment: Post-emergence herbicidal action against Lamium purpureum
Method: (§3) When the observed efficacies exceed the formal sum total of the values of the tests with individual applications, they also exceed the expected value according to Colby, which is calculated using the formula below and is likewise regarded as an indication of synergism (cf. S. R. Colby; in Weeds 15 (1967) p. 20 to 22): E^C=A+B−([…])
(§4) Here: • A=efficacy of the active compound (A) in % at an application rate of a g a.i./ha; • B=efficacy of the active compound (B) in % at an application rate of b g a.i./ha; • E^C=expected value of the effect of the combination (A)+(B) in % at the combined application rate a+b g a.i./ha.
(§5) Seeds or rhizome pieces of mono- and dicotyledonous weeds are placed in sandy loam in pots, covered with soil and grown in a greenhouse under good growth conditions (temperature, air humidity, water supply). Three weeks after sowing, the test plants were treated at the three-leaf stage with the compositions according to the invention. The compositions according to the invention formulated as spray powders or as emulsion concentrates were sprayed onto the green plant parts in various dosages with an application rate of 300 to 800 l/ha of water (equivalent). After the test plants have been left to stand in the greenhouse under optimal growth conditions for about 3 to 4 weeks, the action of the preparations is scored visually in comparison to untreated controls. The compositions according to the invention also have good post-emergence herbicidal activity against a broad spectrum of economically important gramineous and broadleaf weeds.

[3] = system: Phalaris minor; experiment: Post-emergence herbicidal action against Phalaris minor
Source text: as §1, §2

[4] = system: Lolium rigidum (resistant biotype); experiment: Post-emergence herbicidal action against Lolium rigidum (resistant biotype)
Source text: as §1, §2

[5] = system: Matricaria inodora; experiment: Post-emergence herbicidal action against Matricaria inodora
[6] = system: Galium aparine; experiment: Post-emergence herbicidal action against Galium aparine
Method: as §3, §4, §5

[7] = system: Lolium rigidum; experiment: Post-emergence herbicidal action against Lolium rigidum
Source text: as §1, §2

[8] = system: Poa annua; experiment: Post-emergence herbicidal action against Poa annua
Method: as §3, §4, §5

[9] = system: Veronica hederifolia; experiment: Post-emergence herbicidal action against Veronica hederifolia
Source text: as §1, §2

[10] = system: Centaurea cyano; experiment: Post-emergence herbicidal action against Centaurea cyano
Method: Seeds or rhizome pieces of mono- and dicotyledonous weeds are placed in sandy loam in pots, covered with soil and grown in a greenhouse under good growth conditions (temperature, air humidity, water supply). Three weeks after sowing, the test plants were treated at the three-leaf stage with the compositions according to the invention. The compositions according to the invention formulated as spray powders or as emulsion concentrates were sprayed onto the green plant parts in various dosages with an application rate of 300 to 800 l/ha of water (equivalent).

[11] = system: Bromus sterilis; experiment: Post-emergence herbicidal action against Bromus sterilis
Source text: as §1, §2

[12] = system: Viola tricolor; experiment: Post-emergence herbicidal action against Viola tricolor
Source text: as §1, §2

[13] = system: Viola tricolor; experiment: as above; details: 5 g of a.i./ha
[14] = system: Bromus sterilis; experiment: Post-emergence herbicidal action against Bromus sterilis; remark: listed apart in the source
[15] = system: Phalaris minor; experiment: Post-emergence herbicidal action against Phalaris minor; remark: listed apart in the source
[16] = system: Alopecurus myosuroides; experiment: Post-emergence herbicidal action against Alopecurus myosuroides; remark: listed apart in the source
[17] = system: Lolium rigidum; experiment: Post-emergence herbicidal action against Lolium rigidum; remark: listed apart in the source
[18] = system: Lolium rigidum (resistant biotype); experiment: Post-emergence herbicidal action against Lolium rigidum (resistant biotype); remark: listed apart in the source
[19] = system: Abutilon theophrasti; experiment: Post-emergence herbicidal action against Abutilon theophrasti
Source text: as §1, §2

[20] = system: Pharbitis purpurea; experiment: Post-emergence herbicidal action against Pharbitis purpurea; details: post-emergence
Method: as §3, §4, §5

[21] = system: Amaranthus palmeri; experiment: Post-emergence herbicidal action against Amaranthus palmeri; details: Amaranthus palmeri, post-emergence, 504 h, read-out: Herbicidal action 21 DAT [%] against Amaranthus palmeri
Method: as §3, §4, §5

[22] = system: Bidens pilosa; experiment: Post-emergence herbicidal action against Bidens pilosa; details: post-emergence, 21 DAT
Method: as §3, §4, §5

[23] = system: Digitaria sanguinalis; experiment: Post-emergence herbicidal action against Digitaria sanguinalis; details: 12 g of a.i./ha, post-emergence
Method: as §3, §4, §5

[24] = system: Brachiaria platyphylla; experiment: Post-emergence herbicidal action against Brachiaria platyphylla; details: 4 g of a.i./ha, post-emergence, block with (B9.10) Saflufenacil
Method: as §3, §4, §5

SMILES: CC(C)N(C(=O)COc1nnc(C(F)(F)F)s1)c1ccc(F)cc1 [(B2.28) Flufenacet]
- Herbicidal action 14 DAT against Alopecurus myosuroides ([1]; 100 g of a.i./ha): 70%
- Herbicidal action 28 DAT against Alopecurus myosuroides ([1]; 300 g of a.i./ha): 75%
- Herbicidal action 14 DAT against Lamium purpureum L. ([2]; 100 g of a.i./ha): 40%
- Herbicidal action 28 DAT against Lamium purpureum L. ([2]; 100 g of a.i./ha): 20%
- Herbicidal action 28 DAT against Phalaris minor ([3]; 33 g of a.i./ha): 0%
- Herbicidal action 28 DAT against Phalaris minor ([3]; 100 g of a.i./ha): 40%
- Herbicidal action 28 DAT against Phalaris minor ([3]; 300 g of a.i./ha): 85%
- Herbicidal action 14 DAT against Lolium rigidum (resistant biotype) ([4]; 100 g of a.i./ha): 20%
- Herbicidal action 28 DAT against Lolium rigidum (resistant biotype) ([4]; 100 g of a.i./ha): 10%
- Herbicidal action 14 DAT against Lolium rigidum (resistant biotype) ([4]; 300 g of a.i./ha): 10%
- Herbicidal action 28 DAT against Lolium rigidum (resistant biotype) ([4]; 300 g of a.i./ha): 20%
- Herbicidal action 14 DAT against Matricaria inodora ([5]; 33 g of a.i./ha): 0%
- Herbicidal action 28 DAT against Galium aparine ([6]; 33 g of a.i./ha): 60%
- Herbicidal action 28 DAT against Galium aparine ([6]; 100 g of a.i./ha): 65%
- Herbicidal action 14 DAT against Lolium rigidum ([7]; 33 g of a.i./ha): 0%
- Herbicidal action 14 DAT against Lolium rigidum ([7]; 100 g of a.i./ha): 35%
- Herbicidal action 28 DAT against Lolium rigidum ([7]; 100 g of a.i./ha): 20%
- Herbicidal action 14 DAT against Lolium rigidum ([7]; 300 g of a.i./ha): 40%
- Herbicidal action 28 DAT against Lolium rigidum ([7]; 300 g of a.i./ha): 25%
- Herbicidal action 28 DAT against Poa annua L. ([8]; 33 g of a.i./ha): 10%
- Herbicidal action 28 DAT against Poa annua L. ([8]; 100 g of a.i./ha): 70%
- Herbicidal action 28 DAT against Poa annua L. ([8]; 300 g of a.i./ha): 65%
- Herbicidal action 14 DAT against Veronica hederifolia ([9]; 33 g of a.i./ha): 35%
- Herbicidal action 14 DAT against Veronica hederifolia ([9]; 100 g of a.i./ha): 40%
- Herbicidal action 28 DAT against Centaurea cyanus ([10]; 100 g of a.i./ha): 20%
- Herbicidal action 14 DAT against Centaurea cyanus ([10]; 300 g of a.i./ha): 30%
- Herbicidal action 14 DAT against Bromus sterilis ([11]; 33 g of a.i./ha): 35%
- Herbicidal action 14 DAT against Bromus sterilis ([11]; 100 g of a.i./ha): 75%
- Herbicidal action 28 DAT against Bromus sterilis ([11]; 100 g of a.i./ha): 25%
- Herbicidal action 28 DAT against Bromus sterilis ([11]; 300 g of a.i./ha): 65%
- Herbicidal action 14 DAT against Viola tricolor ([12]; 33 g of a.i./ha): 20%
- Herbicidal action 28 DAT against Viola tricolor ([12]; 33 g of a.i./ha): 20%
- Herbicidal action 14 DAT against Viola tricolor ([12]; 100 g of a.i./ha): 50%
- Herbicidal action 28 DAT against Viola tricolor ([12]; 100 g of a.i./ha): 20%
- Herbicidal action 28 DAT against Viola tricolor ([12]; 300 g of a.i./ha): 35%

SMILES: Cc1nn(-c2cc(CC(Cl)C(=O)O)c(Cl)cc2F)c(=O)n1C(F)F (centres unmarked) [(B4.8) Carfentrazone]
- Herbicidal action in [%] 28 DAT against Viola tricolor [13]: 80%
- Herbicidal action in [%] 28 DAT against Lamium purpureum L. ([2]; 45 g of a.i./ha): 80%
- Herbicidal action in [%] 14 DAT against Matricaria inodora ([5]; 5 g of a.i./ha): 25%
- Herbicidal action in [%] 28 DAT against Galium aparine ([6]; 5 g of a.i./ha): 70%
- Herbicidal action in [%] 28 DAT against Galium aparine ([6]; 15 g of a.i./ha): 80%
- Herbicidal action in [%] 14 DAT against Bromus sterilis ([14]; 15 g of a.i./ha): 20%
- Herbicidal action in [%] 28 DAT against Bromus sterilis ([14]; 15 g of a.i./ha): 15%
- Herbicidal action in [%] 14 DAT against Bromus sterilis ([14]; 45 g of a.i./ha): 30%
- Herbicidal action in [%] 28 DAT against Bromus sterilis ([14]; 45 g of a.i./ha): 35%
- Herbicidal action in [%] 14 DAT against Phalaris minor ([15]; 15 g of a.i./ha): 15%
- Herbicidal action in [%] 28 DAT against Phalaris minor ([15]; 15 g of a.i./ha): 0%
- Herbicidal action in [%] 14 DAT against Phalaris minor ([15]; 45 g of a.i./ha): 20%
- Herbicidal action in [%] 28 DAT against Phalaris minor ([15]; 45 g of a.i./ha): 10%
- Herbicidal action in [%] 14 DAT against Poa annua L. ([8]; 5 g of a.i./ha): 0%
- Herbicidal action in [%] 14 DAT against Poa annua L. ([8]; 15 g of a.i./ha): 0%
- Herbicidal action in [%] 28 DAT against Poa annua L. ([8]; 15 g of a.i./ha): 0%
- Herbicidal action in [%] 14 DAT against Poa annua L. ([8]; 45 g of a.i./ha): 10%
- Herbicidal action in [%] 28 DAT against Poa annua L. ([8]; 45 g of a.i./ha): 20%
- Herbicidal action in [%] 14 DAT against Alopecurus myosuroides ([16]; 5 g of a.i./ha): 0%
- Herbicidal action in [%] 14 DAT against Alopecurus myosuroides ([16]; 15 g of a.i./ha): 0%
- Herbicidal action in [%] 28 DAT against Alopecurus myosuroides ([16]; 15 g of a.i./ha): 0%
- Herbicidal action in [%] 14 DAT against Alopecurus myosuroides ([16]; 15 g of a.i./ha, second 14 DAT block): 15%
- Herbicidal action in [%] 14 DAT against Alopecurus myosuroides ([16]; 45 g of a.i./ha): 25%
- Herbicidal action in [%] 28 DAT against Alopecurus myosuroides ([16]; 45 g of a.i./ha): 20%
- Herbicidal action in [%] 14 DAT against Alopecurus myosuroides ([16]; 45 g of a.i./ha, second 14 DAT block): 35%
- Herbicidal action in [%] 28 DAT against Lolium rigidum ([17]; 15 g of a.i./ha): 0%
- Herbicidal action in [%] 28 DAT against Lolium rigidum ([17]; 45 g of a.i./ha): 20%
- Herbicidal action in [%] 14 DAT against Lolium rigidum (resistant biotype) ([18]; 15 g of a.i./ha): 10%
- Herbicidal action in [%] 28 DAT against Lolium rigidum (resistant biotype) ([18]; 15 g of a.i./ha): 0%
- Herbicidal action in [%] 14 DAT against Lolium rigidum (resistant biotype) ([18]; 45 g of a.i./ha): 25%
- Herbicidal action in [%] 28 DAT against Lolium rigidum (resistant biotype) ([18]; 45 g of a.i./ha): 20%

SMILES: C[n+]1ccc(-c2cc[n+](C)cc2)cc1 [(B5.37) Paraquat]
- Herbicidal action 21 DAT [%] against Abutilon theophrasti ([19]; 5 g of a.i./ha): 0%
- Herbicidal action 21 DAT [%] against Abutilon theophrasti ([19]; 45 g of a.i./ha): 10%
- Herbicidal action 21 DAT [%] against Pharbitis purpurea ([20]; 21 DAT, 5 g of a.i./ha): 15%
- pest or weed control at 5 g/ha [21]: 0%
- pest or weed control at 45 g/ha [21]: 10%
- Herbicidal action 21 DAT [%] against Bidens pilosa ([22]; 5 g of a.i./ha): 0%
- Herbicidal action 21 DAT [%] against Bidens pilosa ([22]; 45 g of a.i./ha): 10%

SMILES: CC(C)N(C)S(=O)(=O)NC(=O)c1cc(-n2c(=O)cc(C(F)(F)F)n(C)c2=O)c(F)cc1Cl [(B9.10) Saflufenacil, saflufenacil, reference compound]
- Herbicidal action 21 DAT [%] against Digitaria sanguinalis [23]: 50%
- Herbicidal action 21 DAT [%] against Brachiaria platyphylla [24]: 25%
- Herbicidal action 21 DAT [%] against Pharbitis purpurea ([20]; 1.3 g of a.i./ha): 30%
- pest or weed control at 1.3 g/ha ([21]; 1.3 g of a.i./ha, block with (B9.10) Saflufenacil): 70%
